These results are taken from US10624916B2, “Nutritional formulations using human milk oligosaccharides for modulating inflammation” (ABBOTT LABORATORIES, priority 2012, dated 2020).

This assay relates to platelet neutrophil complex (PNC) formation. The assay is described as follows: in vitro simulation of PNC formation (ADP-stimulated, % CD11b+CD42a+ events). Type of assay: cell-based, human. To be noted: 125 μg/mL; for individuals in whom PNC formation decreased: 3 donors, Table 4; for % CD11b+CD42a+ in the tested condition as a percent of those events that were CD11b+CD42a+ under ADP stimulation, average: average of subjects; for % CD11b+CD42a+ in the tested condition as a percent of those events that were CD11b+CD42a+ under ADP stimulation, average / % CD11b+CD42a+ in the tested condition as a percent of those events that were CD11b+CD42a+ under ADP stimulation: 15 minutes with ingredient, then ADP (10 μM) 15 minutes; for effect on PNC formation (in words): 15 minute ingredient incubation, n=2-3 individuals, FIG. 1. The procedure:
Data was generated using an in vitro simulation of PNC formation with a 15 minute ingredient incubation period.
Test concentration was 125 μg/mL for all ingredients tested. Cells were incubated with test ingredients or medium alone (ADP) for 15 minutes. ADP (10 μM) was added to each tube and incubated for 15 minutes. The ADP alone contained no test ingredient. Data is expressed as % CD11b+CD42a+ in the tested conditions as a percent of those events that were CD11b+CD42a+ under ADP stimulation.

`CC(=O)N[C@H]1[C@H](O[C@H]2[C@@H](O)[C@@H](CO)O[C@@H](O[C@H]3[C@H](O)[C@@H](O)C(O)O[C@@H]3CO)[C@@H]2O)O[C@H](CO)[C@@H](O[C@@H]2O[C@H](CO)[C@H](O)[C@H](O)[C@H]2O)[C@@H]1O` (mixture of isomers) [LNnT, lacto-N-neotetraose]: the “individuals in whom PNC formation decreased” value is on record as “decreased PNC formation in 2 out of the 3 subjects tested” and the “% CD11b+CD42a+ in the tested condition as a percent of those events that were CD11b+CD42a+ under ADP stimulation, average” value is reported as 75.4%. The “% CD11b+CD42a+ in the tested condition as a percent of those events that were CD11b+CD42a+ under ADP stimulation” value (subject 1) is given as 102.3%. Besides, where the note is “subject 2”, the “% CD11b+CD42a+ in the tested condition as a percent of those events that were CD11b+CD42a+ under ADP stimulation” value is recorded as 82.9%. Also, the “% CD11b+CD42a+ in the tested condition as a percent of those events that were CD11b+CD42a+ under ADP stimulation” value (subject 3) is on record as 41.1%.
Consider 2′-fucosyllactose [2′FL], for which the “individuals in whom PNC formation decreased” value is “decreased PNC formation in all 3 individuals tested”; the “effect on PNC formation (in words)” value was “significantly reduces PNC formation”; the “% CD11b+CD42a+ in the tested condition as a percent of those events that were CD11b+CD42a+ under ADP stimulation, average” value is given as 66.9%. Also, under “subject 1”, the “% CD11b+CD42a+ in the tested condition as a percent of those events that were CD11b+CD42a+ under ADP stimulation” value was 87.8%. For the same compound, the “% CD11b+CD42a+ in the tested condition as a percent of those events that were CD11b+CD42a+ under ADP stimulation” value (subject 2) was 62.1%. The “% CD11b+CD42a+ in the tested condition as a percent of those events that were CD11b+CD42a+ under ADP stimulation” value (subject 3) is given as 50.7%.
For 3-fucosyllactose [3FL], the “effect on PNC formation (in words)” value is recorded as “did not decrease PNC formation” and the “% CD11b+CD42a+ in the tested condition as a percent of those events that were CD11b+CD42a+ under ADP stimulation, average” value was 83.1%. Further, the “% CD11b+CD42a+ in the tested condition as a percent of those events that were CD11b+CD42a+ under ADP stimulation” value (subject 1) is reported as 80.8%. The “% CD11b+CD42a+ in the tested condition as a percent of those events that were CD11b+CD42a+ under ADP stimulation” value (subject 2) is 64.3%. Moreover, the “% CD11b+CD42a+ in the tested condition as a percent of those events that were CD11b+CD42a+ under ADP stimulation” value (subject 3) was 104.1%.
The matching figures for `CC(=O)N[C@H]1[C@H]([C@H](O)[C@H](O)CO)O[C@@](OC[C@H]2O[C@@H](O[C@H]3[C@H](O)[C@@H](O)[C@H](O)O[C@@H]3CO)[C@H](O)[C@@H](O)[C@H]2O)(C(=O)O)C[C@@H]1O` [6′SL, 6′-sialyllactose, reference compound]: “do not decrease PNC formation”, 94.2%, 90.1%, 59.8% and 132.8%.
On the same counts, the results for `CC(=O)N[C@H]1[C@H]([C@H](O)[C@H](O)CO)O[C@@](O[C@H]2[C@@H](O)[C@@H](CO)O[C@@H](O[C@H]3[C@H](O)[C@@H](O)C(O)O[C@@H]3CO)[C@@H]2O)(C(=O)O)C[C@@H]1O` (some centres unmarked) [3′SL, 3′-sialyllactose, reference compound] are “do not decrease PNC formation”, 99.2%, 91.3%, 89.3% and 117.1%.
